This is an account of results in patent US20040101488A1, “Method for the prevention of septic shock lethality using curcumin” (priority 2000, published 2004).

Experiment [1] relates to mice injected with lipopolysaccharide (septic shock). The experiment can be described thus: LPS-induced septic shock in mice: survival and symptoms. The conditions noted are these: for Percentage Survival: prior to and after LPS (40 mg/kg i.p.), mice. The experiment is classed as in vivo. Here is the method:
In septic shock experiments, age-and body weight-matched (25-30 g) female swiss albino mice were injected intraperitoneally with 40 mg/kg LPS solubilised in 200 μl sterile 0.9% saline. Control animals received equal volumes of saline. For groups that were treated with curcumin, the mice were fed orally with 20 mg/kg to 60 mg/kg body weight curcumin suspended in olive oil (20 mg/ml) at various times prior to and after injecting LPS. The mice were fed with curcumin 4 hrs and 2 hrs prior to, simultaneously and 4 hrs, 16 hrs, 24 hrs, 48 hrs and 72 hrs after injecting LPS. Following this, the mice were observed every 2-3 hours after LPS injection with respect to septic shock symptoms such as fever, lethargy, diarrhea, watery eyes and survival.
Intraperitoneal injection of high doses of LPS (40 mg/kg) induced lethal endotoxin shock in mice. […] The death occurred within 24-48 hrs after receiving LPS. To test whether curcumin protects mice injected with LPS from septic shock, we treated mice with varying doses of curcumin 4 hrs and 2 hrs prior to, simultaneously and 4 hrs, 16 hrs, 24 hrs, 48hrs and 72 hrs after injecting LPS. […] Overall, severity of the septic shock symptoms in treated group was much less in comparison with control groups (as shown in Table 2). The mice start recovering within 48 to 72 hrs. Most importantly, 70% of the mice treated with 40 mg/kg to 60 mg/kg curcumin survived from death (FIG. 1).

Experiment [2] has as its system neutrophils in the liver of LPS injected mice. The experiment can be described thus: Liver histology, chloroacetate esterase staining of neutrophils after LPS challenge. The conditions noted are these: 24 hrs after LPS challenge, liver sections, FIG. 2.
The subject of experiment [3] is adhesion of human peripheral neutrophils to endothelial cells from human umbilical cord. The experiment can be described thus: Cell adherence assay: neutrophil adhesion to endothelial monolayers. The experiment is classed as cell-based. Here is the method:
Endothelial cells grown to confluency in 96 well plates were incubated without or with indicated concentrations of curcumin for 1 hr followed by induction without (hatched bars) or with (closed bars) LPS (1 μg/ml) for 6 hrs. The cells were then incubated with human peripheral neutrophils for 1 hr. The amount of neutrophils adhering to the endothelial cell monolayers was measured by a colorimetric assay as described in Example 6.
Primary endothelial cells were isolated from human umbilical cord. For isolation of the cells the umbilical cord vein was canulated and then perfused with phosphate buffer saline to remove blood and then incubated with 0.125% trypsin for 15 mins at 37° C. The vein was then perfused with PBS and the cells were collected. […] The viability of endothelial cells in culture was checked by trypan blue exclusion test and the purity was determined by E-selectin staining. […]
Adhesion of neutrophils to endothelial monolayers was assayed as described previously (Dobrina A et al., J. Clin. Invest., 88:20-26 1991). […] The absorbance was determined at […] using an automated microplate reader (Anthos Labtech HT2, Austria).

The subject of experiment [4] is mice injected with lipopolysaccharide (septic shock). The experiment can be described thus: LPS-induced septic shock in mice: survival and symptoms. The experiment is classed as in vivo. The conditions noted are these: none prior.

Structures are written as SMILES. “Also recorded” adds a separate entry of the source.

As to `COc1cc(/C=C/C(=O)CC(=O)/C=C/c2ccc(O)c(OC)c2)ccc1O` [curcumin, diferuloylmethane], the “mice survived from death” value in experiment [1] (40 mg/kg to 60 mg/kg curcumin orally, LPS 40 mg/kg i.p., FIG. 1) stood at 70%. For the same compound, the “Percentage Survival” value was 0% in experiment [1] (curcumin 20 mg/kg body weight orally), 70% in experiment [1] (curcumin 40 mg/kg body weight orally) and 70% in experiment [1] (curcumin 60 mg/kg body weight orally). Further, in experiment [1] (curcumin treated mice, LPS 40 mg/kg i.p., lethargy, watery eyes, diarrhea), the “severity of the septic shock symptoms versus control groups” value was “much less”. Moreover, in experiment [1] (low dose, LPS 40 mg/kg i.p.), the “protection of mice by low dose of curcumin” value was “not able to protect the mice”. Further, the “extravasation of neutrophils in the liver versus untreated mice” value in experiment [2] is listed as “much reduced”. Moreover, the “adhesion of neutrophils to unstimulated endothelial monolayers” value in experiment [3] (10 μM to 40 μM curcumin for 1 hr, no LPS) is on record as “did not affect”. The “inhibition of neutrophil adhesion to LPS stimulated endothelial cells” value in experiment [3] (curcumin 40 μM for 1 hr, then LPS 1 μg/ml for 6 hrs, concentration dependent over 10 to 40 μM) is “almost complete inhibition”. Further, the “survival of recovered mice on repeated LPS injection” value in experiment [4] (curcumin only simultaneously with and after LPS (3, 6, 9, 24, 42 hrs)) was “all the animals survived; also recorded: all survived death”. Further, the “severity of septic shock symptoms in recovered mice on repeated LPS injection” value in experiment [4] (curcumin only simultaneously with and after LPS) is reported as “significant reduction in severity of septic shock symptoms”.
